Values quoted from earlier work, collected in US20190110514A1, “KITS COMPRISING SATIETY-INDUCING FORMULATIONS” (PERORA GMBH, priority 2016, published 2019).

What was measured:
satiety signalling = settings: infusion into the duodenum by feeding tube
[1] = rat feeding study; independent from intake

true digestibility of stearic acid from tristearin [1] [g/g]	SMILES	satiety signalling (satiety signalling)
	CCCCCCCCCCCC(=O)O [lauric acid]	strong satiety signalling
0.15	CCCCCCCCCCCCCCCCCC(=O)OCC(COC(=O)CCCCCCCCCCCCCCCCC)OC(=O)CCCCCCCCCCCCCCCCC [tristearin]	
	CCCCCCCC/C=C\CCCCCCCC(=O)O [oleic acid]	strong satiety signalling
